Measurements from publication PMC10669220, “In Vitro α-Glucosidase and α-Amylase Inhibition, Cytotoxicity and Free Radical Scavenging Profiling of the 6-Halogeno and Mixed 6,8-Dihalogenated 2-Aryl-4-methyl-1,2-dihydroquinazoline 3-Oxides” (Antioxidants, 2023).

Columns and labels:
[1] = molecular target: T1, α-Glucosidase type 1 from baker's yeast (Saccharomyces cerevisiae, UniProt P53341); assay: biochemical; details: IC50 α-Glucosidase, mean ± SD, triplicate; tested at 1, 5, 10, 25, 50 µM
T1 construct: purchased Sigma Aldrich (Pty) Ltd. G5003
Description: The assay was conducted in triplicate following a method described in our previous study. […] After pre-incubation, 17 µL of 2 mM PNP-G was added. The absorbances were recorded in a 96-well microplate at 400 nm using an Elisa plate reader (Varioskan Flash, ThermoFischer Scientific, Vantaa, Finland). The average values obtained from the readings were used to determine the IC50 and standard deviation values using a GraphPad Prism software (Version 8, GraphPad Software Inc., San Diego, CA, USA). The average values obtained from the absorbance readings were used to determine the IC50 and standard deviation values in GraphPad prism from nonlinear regression dose–response curves.

human α-amylase = molecular target: T2, human α-amylase (Homo sapiens, UniProt P04746); assay: α-amylase inhibitor screening kit assay; type: biochemical; details: mean ± SD, triplicate; tested at 1, 5, 10, 25, 50 µM
T2 construct: purchased Abcam ab283391
T2 sequence (P04746 16-511): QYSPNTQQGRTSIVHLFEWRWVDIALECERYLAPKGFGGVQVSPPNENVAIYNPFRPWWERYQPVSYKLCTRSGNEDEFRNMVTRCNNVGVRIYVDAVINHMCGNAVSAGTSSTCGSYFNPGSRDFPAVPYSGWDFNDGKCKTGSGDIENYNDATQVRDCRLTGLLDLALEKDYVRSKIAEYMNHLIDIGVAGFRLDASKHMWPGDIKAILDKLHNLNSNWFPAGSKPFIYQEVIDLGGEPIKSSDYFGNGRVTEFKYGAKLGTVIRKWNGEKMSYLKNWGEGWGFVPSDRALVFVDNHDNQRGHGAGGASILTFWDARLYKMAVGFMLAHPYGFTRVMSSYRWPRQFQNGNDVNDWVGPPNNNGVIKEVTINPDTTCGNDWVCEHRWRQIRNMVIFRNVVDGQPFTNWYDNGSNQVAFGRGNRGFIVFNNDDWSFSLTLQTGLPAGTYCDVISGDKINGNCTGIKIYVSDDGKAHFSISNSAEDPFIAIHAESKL
Description: The α-amylase assay was performed in triplicate, using a 96-well plate following the procedure recommended by the manufacturer as outlined in the α-amylase inhibitor Screening Kit (Catalogue No. ab283391; Abcam). […] The average values obtained from the absorbance readings were used to determine the IC50 and standard deviation values in GraphPad prism from nonlinear regression dose–response curves.

[2] = DPPH radical scavenging assay; details: mean ± SD; 45 min in the dark; 512 nm
Description: The DPPH radical scavenging assay was conducted following the procedure described in our previous study. The test compounds and ascorbic acid at various concentrations (ranging from 0 µM to 50 µM) in DMSO were mixed with a solution of DPPH (0.20 mM) in methanol and incubated in the dark for 45 min. Five absorbance readings were recorded at 512 nm using an Elisa plate reader (Varioskan Flash, ThermoFisher Scientific, Vantaa, Finland). The experiment was carried out in triplicate, and averaged values from the absorbance readings were used to determine the IC50 and standard deviation values in GraphPad prism from nonlinear regression dose–response curves.

[3] = NO free radical scavenging assay (sodium nitroprusside/Griess); details: mean ± SD; sodium nitroprusside, Griess reagent, 550 nm
Description: The assay was conducted following the method described in our previous study. A mixture of 10 mM sodium nitroprusside (20 µL), phosphate buffer (5 µL) and the test compound (5 µL) were incubated at 25 °C in a 96-well plate for 2.5 h. After incubation, 20 µL of Griess reagent (1.00 g of sulfanilic acid + 0.10 g naphthylethylene diamine dihydrochloride) was added to the previous mixture and allowed to stand for 30 min. […] Each experiment was performed in triplicate, and the average was taken. The average obtained from the absorbance readings was used to calculate the IC50 values in GraphPad prism from nonlinear regression dose–response curves.

[4] = system: lung cancer (A549) cell line; assay: MTT cytotoxicity assay, A549; details: for Cell viability percentage, A549: Table S3; for IC50: Homo sapiens, A549, read-out: IC50 A549
Description: (§1) Cells were cultured in sterile Dulbecco’s Minimal Essential Medium (DMEM, Gibco) supplemented with 10% fetal bovine serum (FBS) and 1% penicillin-streptomycin solution. […] Cell counting was carried out using a handheld automated cell counter (Scapter 3.0™, Merck, Burlington, MA, USA) and seeded (1 × 10^4 cells/well) into a 96-well plate. After 24 h, the cells were treated with different concentrations (1, 5, 10, 25 and 50 µM) of the test compounds and reference standards prepared in DMEM. The MTT solution (20 μL) prepared in PBS (5 mg/mL) was added to all the wells, and the plates were incubated for 4 h, followed by 1 h incubation with 100 µL of dimethyl sulfoxide (DMSO) to dissolve the formazan crystals. Untreated cells and 5% DMSO were included in the experiment as negative controls. All experiments were performed in triplicate. The plates were read at 570 nm at a reference wavelength of 630 nm using an ELISA plate reader (Varioskan Flash, ThermoFisher Scientific, Vantaa, Finland). The percentage of cell viability was calculated using the following formula, Cell viability %=At/Ab×100 where At represents the absorbance value of test compound and Ab the absorbance value of the blank. […] The data were expressed as means ± SD.

[5] = system: breast cancer (MCF-7) cell line; assay: MTT cytotoxicity assay, MCF-7; details: for Cell viability percentage, MCF-7: Table S2; for IC50: Homo sapiens, MCF7, read-out: IC50 MCF-7
Description: as §1

[6] = MTT cytotoxicity assay, HEK293-T; details: human, HEK293-T cells
[7] = system: human embryonic kidney (HEK293-T) cell line; assay: MTT cytotoxicity assay, HEK293-T; details: Homo sapiens, HEK-293T, read-out: IC50 Hek293-T
[8] = system: NO generated from nitric oxide synthase (NOS); assay: Inhibitory activity against NO generated from NOS (EnzyChrom kit); type: biochemical; details: mean ± SD, 1-50 µM
Description: A nitric oxide synthase (NOS) assay was performed following the procedure recommended by the manufacturer as outlined in the screening kit (Catalogue No. EINO-100; EnzyChrom). Various concentrations (1, 5, 10, 25 and 50 µM) of the compounds 3a, 3c, 3f, 3i, 3l, 3n and 3p and the reference standard, ascorbic acid, were prepared. The enzyme solution (12.5 U/mL NOS, 10 µL), assay buffer (25 µL) and test samples (5 µL) were incubated at room temperature for 15 min. After pre-incubation, 10 µL of reaction mix was added and incubated at 37 °C for 60 min. A 200 µL quantity of NO detection reagent was added, the detection reaction was run at 37 °C for 60 min, and absorbance was determined at a wavelength of 540 nm using an Elisa plate reader (Varioskan Flash, ThermoFisher Scientific, Vantaa, Finland). The average of three readings was used to calculate the NOS percentage inhibition using the following formula: % Inhibition=1−ΔOD Test Compd/ΔOD No Inhibitor ×100%
The IC50 values and standard deviation values were determined from nonlinear regression dose–response curve and compared with the results in GraphPad prism.

T1 sequence (P53341 whole entry): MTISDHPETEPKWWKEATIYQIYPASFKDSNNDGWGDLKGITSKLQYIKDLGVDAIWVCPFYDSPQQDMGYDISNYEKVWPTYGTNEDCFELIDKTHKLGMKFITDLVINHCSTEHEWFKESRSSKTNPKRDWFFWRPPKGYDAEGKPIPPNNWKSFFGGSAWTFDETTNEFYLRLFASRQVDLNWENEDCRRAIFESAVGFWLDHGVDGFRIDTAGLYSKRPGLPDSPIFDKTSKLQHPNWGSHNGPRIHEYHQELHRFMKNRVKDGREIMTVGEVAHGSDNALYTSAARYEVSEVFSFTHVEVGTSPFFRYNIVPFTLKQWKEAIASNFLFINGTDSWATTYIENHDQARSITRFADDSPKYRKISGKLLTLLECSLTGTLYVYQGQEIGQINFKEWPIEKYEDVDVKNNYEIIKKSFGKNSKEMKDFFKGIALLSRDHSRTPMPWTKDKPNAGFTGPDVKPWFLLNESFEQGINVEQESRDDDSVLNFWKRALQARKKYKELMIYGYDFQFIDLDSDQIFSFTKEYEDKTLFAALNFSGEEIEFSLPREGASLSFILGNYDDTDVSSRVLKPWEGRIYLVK

Compound	IC50 [1]	IC50 (human α-amylase)	IC50 [2]	IC50 [3]	melting point	Cell viability percentage, A549 ([4]; Conc. 1 (µM per method))	Cell viability percentage, A549 ([4]; Conc. 5 (µM per method))	IC50 [4]	Cell viability percentage, MCF-7 ([5]; Conc. 1 (µM per method))	Cell viability percentage, MCF-7 ([5]; Conc. 5 (µM per method))	Cell viability percentage, MCF-7 ([5]; Conc. 10 (µM per method))	Cell viability percentage, MCF-7 ([5]; Conc. 25 (µM per method))	Cell viability percentage, MCF-7 ([5]; Conc. 50 (µM per method))	IC50 [5]	viability at 1 µM [6]	viability at 5 µM [6]	viability at 10 µM [6]	viability at 25 µM [6]	viability at 50 µM [6]	IC50 [7]	further results
CC1=[N+]([O-])C(c2ccccc2)Nc2ccc(I)cc21 (stereo not shown) [Compound 3e]	6.04 ± 0.01 µM	49.5 ± 0.06 µM	1.1 ± 0.031 µM	52.38 ± 0.003 µM	184 to 186 °C	74,9578%	64,338%	11.4 ± 0.12 µM	27,8443%	22,0559%	23,6194%	19,7272%	17,2488%	15.83 ± 0.14 µM	69.7%	60%	40%	31.9%	20%	20.12 ± 0.06 µM	Cell viability percentage, A549 ([4]; Conc. 10 (µM per method)): 52,0419%; Cell viability percentage, A549 ([4]; Conc. 25 (µM per method)): 40,2408%; Cell viability percentage, A549 ([4]; Conc. 50 (µM per method)): 30,3184%
O=C1O[C@H]([C@@H](O)CO)C(O)=C1O [Ascorbic acid, ascorbic acid, reference compound]	–	–	5.02 ± 0.009 µM	5.39 ± 0.005 µM	–	–	–	–	–	–	–	–	–	–	–	–	–	–	–	–	IC50 [8]: 0.999 ± 0.006 µM
COc1ccc(C2Nc3ccc(Br)cc3C(C)=[N+]2[O-])cc1 (stereo not shown) [Compound 3d]	68.2 ± 0.01 µM	54.08 ± 0.03 µM	9.55 ± 0.006 µM	24.42 ± 0.004 µM	194 to 196 °C	–	–	13.45 ± 0.03 µM	47,0559%	46,8729%	44,0286%	43,2136%	38,6394%	13.68 ± 0.09 µM	75.1%	60.1%	54.1%	30.6%	17.6%	37.53 ± 0.18 µM	–
CC1=[N+]([O-])C(c2ccc(Cl)cc2)Nc2c(Br)cc(I)cc21 (stereo not shown) [Compound 3o]	7.07 ± 0.04 µM	49.18 ± 0.01 µM	88.45 ± 0.009 µM	23.25 ± 0.002 µM	140 to 142 °C	–	–	20 ± 0.05 µM	46,2908%	41,6001%	39,6041%	38,7891%	23,0428%	16.5 ± 0.01 µM	45.2%	44.6%	44.4%	44.2%	37.7%	58.98 ± 0.17 µM	–
CC1=[N+]([O-])C(c2ccc(F)cc2)Nc2ccc(Br)cc21 (stereo not shown) [Compound 3b]	7.47 ± 0.05 µM	36.35 ± 0.01 µM	1.07 ± 0.048 µM	15.1 ± 0.029 µM	183 to 185 °C	69,0066%	60,8505%	19.31 ± 0.08 µM	39,7538%	38,34%	35,1963%	33,8157%	30,3061%	12.8 ± 0.07 µM	41.6%	41.3%	40.3%	38.5%	35.8%	41.72 ± 0.04 µM	Cell viability percentage, A549 ([4]; Conc. 10 (µM per method)): 56,1818%; Cell viability percentage, A549 ([4]; Conc. 25 (µM per method)): 42,7495%; Cell viability percentage, A549 ([4]; Conc. 50 (µM per method)): 28,8446%
